Several values for one entry are separate records, joined by “and”; a condition that tells them apart may be missing. Equal values may be shown once. Inconclusive results and toxic doses are left out.
Test system: CD2F1 mice, L1210 leukemia ip, survival T/C
Assay: NCI In Vivo Anticancer Drug Screen. Data for tumor model L1210 Leukemia (intraperitoneal) in CD2F1 (CDF1) mice
Details: higher = longer survival
In short: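 Transplantable tumor in mice; compound-treated vs vehicle-treated groups. Read-out = treated/control ratio of the measured endpoint.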

For `NC(C/[N+]([O-])=N/O)C(=O)O` (configuration not stated), the T/C (endpoint: mean survival time, dose: 5.0 mg/kg/injection, schedule: Q01DX009 (ip), vehicle: alkali diluted with saline) was 100 % of control, the T/C (endpoint: mean survival time, dose: 7.5 mg/kg/injection, schedule: Q01DX005 (ip), vehicle: alkali diluted with saline) was 98 % of control and the T/C (endpoint: mean survival time, dose: 8.0 mg/kg/injection, schedule: Q03HX008 (ip), vehicle: saline) was 111 % of control. The T/C (endpoint: mean survival time, dose: 8.0 mg/kg/injection, schedule: Q03HX016 (ip), vehicle: saline) was 105 % of control, the T/C (endpoint: mean survival time, dose: 8.0 mg/kg/injection, schedule: Q03HX024 (ip), vehicle: saline) was 109 % of control and the T/C (endpoint: mean survival time, dose: 8.78 mg/kg/injection, schedule: Q01DX010 (ip), vehicle: alkali diluted with saline) was 121 % of control. For the same compound, the T/C (endpoint: mean survival time, dose: 9.38 mg/kg/injection, schedule: Q01DX009 (ip), vehicle: alkali diluted with saline) was 118 % of control, the T/C (endpoint: mean survival time, dose: 10.0 mg/kg/injection, schedule: Q01DX009 (ip), vehicle: alkali diluted with saline) was 101 % of control and the T/C (endpoint: mean survival time, dose: 13.2 mg/kg/injection, schedule: Q01DX010 (ip), vehicle: alkali diluted with saline) was 120 % of control. For the same compound, the T/C (endpoint: mean survival time, dose: 15.0 mg/kg/injection, schedule: Q01DX005 (ip), vehicle: alkali diluted with saline) was 113 % of control, the T/C (endpoint: mean survival time, dose: 16.0 mg/kg/injection, schedule: Q01DX009 (sc), vehicle: saline) was 97 % of control and the T/C (endpoint: mean survival time, dose: 16.0 mg/kg/injection, schedule: Q03HX008 (ip), vehicle: saline) was 112 % of control. The T/C (endpoint: mean survival time, dose: 16.0 mg/kg/injection, schedule: Q03HX016 (ip), vehicle: saline) was 104 % of control, the T/C (endpoint: mean survival time, dose: 16.0 mg/kg/injection, schedule: Q03HX024 (ip), vehicle: saline) was 112 % of control and the T/C (endpoint: mean survival time, dose: 18.75 mg/kg/injection, schedule: Q01DX009 (ip), vehicle: alkali diluted with saline) was 119 % of control. The T/C (endpoint: mean survival time, dose: 18.8 mg/kg/injection, schedule: Q01DX009 (ip), vehicle: alkali diluted with saline) was 102 % of control, the T/C (endpoint: mean survival time, dose: 19.8 mg/kg/injection, schedule: Q01DX010 (ip), vehicle: alkali diluted with saline) was 121 % of control and the T/C (endpoint: mean survival time, dose: 20.0 mg/kg/injection, schedule: Q01DX009 (ip), vehicle: alkali diluted with saline) was 105 % of control. The T/C (endpoint: mean survival time, dose: 28.12 mg/kg/injection, schedule: Q04DX003 (ip), vehicle: alkali diluted with saline) was 103 % of control, the T/C (endpoint: mean survival time, dose: 30.0 mg/kg/injection, schedule: Q01DX005 (ip), vehicle: alkali diluted with saline) was 122 % of control and the T/C (endpoint: mean survival time, dose: 32.0 mg/kg/injection, schedule: Q01DX009 (ip), vehicle: saline) was 123 % of control. The T/C (endpoint: mean survival time, dose: 32.0 mg/kg/injection, schedule: Q01DX009 (sc), vehicle: saline) was 103 % of control, the T/C (endpoint: mean survival time, dose: 32.0 mg/kg/injection, schedule: Q03HX008 (ip), vehicle: saline) was 108 % of control and the T/C (endpoint: mean survival time, dose: 32.0 mg/kg/injection, schedule: Q03HX016 (ip), vehicle: saline) was 113 % of control. For the same compound, the T/C (endpoint: mean survival time, dose: 37.5 mg/kg/injection, schedule: Q01DX009 (ip), vehicle: alkali diluted with saline) was 120 % of control and 124 % of control, the T/C (endpoint: mean survival time, dose: 40.0 mg/kg/injection, schedule: Q01DX009 (ip), vehicle: alkali diluted with saline) was 120 % of control and the T/C (endpoint: mean survival time, dose: 56.25 mg/kg/injection, schedule: Q04DX003 (ip), vehicle: alkali diluted with saline) was 116 % of control and 103 % of control. For the same compound, the T/C (endpoint: mean survival time, dose: 64.0 mg/kg/injection, schedule: Q01DX001 (ip), vehicle: saline) was 111 % of control, the T/C (endpoint: mean survival time, dose: 64.0 mg/kg/injection, schedule: Q01DX009 (oral), vehicle: saline) was 96 % of control and the T/C (endpoint: mean survival time, dose: 64.0 mg/kg/injection, schedule: Q01DX009 (sc), vehicle: saline) was 111 % of control. The T/C (endpoint: mean survival time, dose: 64.0 mg/kg/injection, schedule: Q03HX008 (ip), vehicle: saline) was 116 % of control, the T/C (endpoint: mean survival time, dose: 64.0 mg/kg/injection, schedule: Q03HX016 (ip), vehicle: saline) was 116 % of control and the T/C (endpoint: mean survival time, dose: 64.0 mg/kg/injection, schedule: Q04DX003 (ip), vehicle: saline) was 116 % of control. For the same compound, the T/C (endpoint: mean survival time, dose: 64.0 mg/kg/injection, schedule: Q04DX003 (oral), vehicle: saline) was 98 % of control, the T/C (endpoint: mean survival time, dose: 64.0 mg/kg/injection, schedule: Q04DX003 (sc), vehicle: saline) was 96 % of control and the T/C (endpoint: mean survival time, dose: 64.0 mg/kg/injection, schedule: Q08DX002 (ip), vehicle: saline) was 109 % of control. The T/C (endpoint: mean survival time, dose: 112.5 mg/kg/injection, schedule: Q04DX003 (ip), vehicle: alkali diluted with saline) was 123 % of control, the T/C (endpoint: mean survival time, dose: 128.0 mg/kg/injection, schedule: Q01DX001 (ip), vehicle: saline) was 113 % of control and the T/C (endpoint: mean survival time, dose: 128.0 mg/kg/injection, schedule: Q01DX009 (ip), vehicle: saline) was 95 % of control. For the same compound, the T/C (endpoint: mean survival time, dose: 128.0 mg/kg/injection, schedule: Q01DX009 (oral), vehicle: saline) was 91 % of control, the T/C (endpoint: mean survival time, dose: 128.0 mg/kg/injection, schedule: Q01DX009 (sc), vehicle: saline) was 104 % of control and the T/C (endpoint: mean survival time, dose: 128.0 mg/kg/injection, schedule: Q04DX003 (oral), vehicle: saline) was 102 % of control. For the same compound, the T/C (endpoint: mean survival time, dose: 128.0 mg/kg/injection, schedule: Q04DX003 (sc), vehicle: saline) was 105 % of control, the T/C (endpoint: mean survival time, dose: 128.0 mg/kg/injection, schedule: Q08DX002 (ip), vehicle: saline) was 112 % of control and the T/C (endpoint: mean survival time, dose: 150.0 mg/kg/injection, schedule: Q01DX009 (ip), vehicle: alkali diluted with saline) was 102 % of control. For the same compound, the T/C (endpoint: mean survival time, dose: 256.0 mg/kg/injection, schedule: Q01DX001 (ip), vehicle: saline) was 123 % of control, the T/C (endpoint: mean survival time, dose: 256.0 mg/kg/injection, schedule: Q04DX003 (ip), vehicle: saline) was 119 % of control and the T/C (endpoint: mean survival time, dose: 256.0 mg/kg/injection, schedule: Q04DX003 (oral), vehicle: saline) was 116 % of control. For the same compound, the T/C (endpoint: mean survival time, dose: 256.0 mg/kg/injection, schedule: Q04DX003 (sc), vehicle: saline) was 122 % of control, the T/C (endpoint: mean survival time, dose: 512.0 mg/kg/injection, schedule: Q04DX003 (ip), vehicle: saline) was 170 % of control and the T/C (endpoint: mean survival time, dose: 512.0 mg/kg/injection, schedule: Q04DX003 (sc), vehicle: saline) was 155 % of control. The T/C (endpoint: mean survival time, dose: 1024.0 mg/kg/injection, schedule: Q04DX003 (ip), vehicle: saline) was 90 % of control, the T/C (endpoint: mean survival time, dose: 1024.0 mg/kg/injection, schedule: Q04DX003 (oral), vehicle: saline) was 119 % of control and the T/C (endpoint: mean survival time, dose: 1024.0 mg/kg/injection, schedule: Q04DX003 (sc), vehicle: saline) was 89 % of control. The T/C (endpoint: mean survival time, dose: 1024.0 mg/kg/injection, schedule: Q08DX002 (ip), vehicle: saline) was 118 % of control, the T/C (endpoint: median survival time, dose: 0.78 mg/kg/injection, schedule: Q01DX009 (ip), vehicle: water) was 100 % of control and the T/C (endpoint: median survival time, dose: 0.78 mg/kg/injection, schedule: Q04DX003 (ip), vehicle: water) was 100 % of control. For the same compound, the T/C (endpoint: median survival time, dose: 1.57 mg/kg/injection, schedule: Q01DX009 (ip), vehicle: water) was 95 % of control and 100 % of control, the T/C (endpoint: median survival time, dose: 1.57 mg/kg/injection, schedule: Q04DX003 (ip), vehicle: water) was 95 % of control and the T/C (endpoint: median survival time, dose: 3.13 mg/kg/injection, schedule: Q01DX009 (ip), vehicle: water) was 100 % of control. The T/C (endpoint: median survival time, dose: 3.13 mg/kg/injection, schedule: Q04DX003 (ip), vehicle: water) was 95 % of control and 100 % of control, the T/C (endpoint: median survival time, dose: 6.25 mg/kg/injection, schedule: Q01DX009 (ip), vehicle: water) was 110 % of control and the T/C (endpoint: median survival time, dose: 6.25 mg/kg/injection, schedule: Q04DX003 (ip), vehicle: water) was 90 % of control and 95 % of control. The T/C (endpoint: median survival time, dose: 12.5 mg/kg/injection, schedule: Q01DX009 (ip), vehicle: water) was 105 % of control, the T/C (endpoint: median survival time, dose: 12.5 mg/kg/injection, schedule: Q04DX003 (ip), vehicle: water) was 90 % of control and 100 % of control and the T/C (endpoint: median survival time, dose: 13.0 mg/kg/injection, schedule: Q01DX009 (ip), vehicle: alkali diluted with saline) was 120 % of control. The T/C (endpoint: median survival time, dose: 16.2 mg/kg/injection, schedule: Q01DX009 (ip), vehicle: alkali diluted with saline) was 119 % of control, the T/C (endpoint: median survival time, dose: 21.6 mg/kg/injection, schedule: Q01DX009 (ip), vehicle: alkali diluted with saline) was 122 % of control and the T/C (endpoint: median survival time, dose: 25.0 mg/kg/injection, schedule: Q01DX009 (ip), vehicle: water) was 100 % of control. The T/C (endpoint: median survival time, dose: 25.0 mg/kg/injection, schedule: Q04DX003 (ip), vehicle: water) was 90 % of control and 105 % of control, the T/C (endpoint: median survival time, dose: 27.0 mg/kg/injection, schedule: Q01DX009 (ip), vehicle: alkali diluted with saline) was 124 % of control and the T/C (endpoint: median survival time, dose: 31.3 mg/kg/injection, schedule: Q01DX009 (ip), vehicle: water) was 122 % of control. For the same compound, the T/C (endpoint: median survival time, dose: 31.3 mg/kg/injection, schedule: Q04DX003 (ip), vehicle: water) was 116 % of control, the T/C (endpoint: median survival time, dose: 35.0 mg/kg/injection, schedule: Q04DX003 (ip), vehicle: alkali diluted with saline) was 120 % of control and the T/C (endpoint: median survival time, dose: 36.0 mg/kg/injection, schedule: Q01DX009 (ip), vehicle: alkali diluted with saline) was 120 % of control. The T/C (endpoint: median survival time, dose: 58.3 mg/kg/injection, schedule: Q04DX003 (ip), vehicle: alkali diluted with saline) was 120 % of control, the T/C (endpoint: median survival time, dose: 62.5 mg/kg/injection, schedule: Q01DX009 (ip), vehicle: water) was 122 % of control and the T/C (endpoint: median survival time, dose: 62.5 mg/kg/injection, schedule: Q04DX003 (ip), vehicle: water) was 122 % of control. The T/C (endpoint: median survival time, dose: 90.0 mg/kg/injection, schedule: Q01DX009 (ip), vehicle: alkali diluted with saline) was 158 % of control, the T/C (endpoint: median survival time, dose: 125.0 mg/kg/injection, schedule: Q01DX009 (ip), vehicle: alkali diluted with saline) was 114 % of control and the T/C (endpoint: median survival time, dose: 125.0 mg/kg/injection, schedule: Q01DX009 (ip), vehicle: water) was 88 % of control. The T/C (endpoint: median survival time, dose: 125.0 mg/kg/injection, schedule: Q04DX003 (ip), vehicle: water) was 122 % of control, the T/C (endpoint: median survival time, dose: 162.0 mg/kg/injection, schedule: Q04DX003 (ip), vehicle: alkali diluted with saline) was 151 % of control and the T/C (endpoint: median survival time, dose: 250.0 mg/kg/injection, schedule: Q04DX003 (ip), vehicle: water) was 155 % of control and 177 % of control. For the same compound, the T/C (endpoint: median survival time, dose: 270.0 mg/kg/injection, schedule: Q04DX003 (ip), vehicle: alkali diluted with saline) was 172 % of control, the T/C (endpoint: median survival time, dose: 450.0 mg/kg/injection, schedule: Q04DX003 (ip), vehicle: alkali diluted with saline) was 189 % of control and the T/C (endpoint: median survival time, dose: 500.0 mg/kg/injection, schedule: Q04DX003 (ip), vehicle: water) was 194 % of control.

From PubChem BioAssay AID256 (DTP/NCI, 2004)
